Results as given in patent US4822774A, “Physiologically active peptide” (Eisai Co., Ltd., priority 1986, dated 1989).

Tested on: Muscle of Bronchus Removed from Guinea Pig
Conditions: guinea pig trachea, 6.5×10^-6 M histamine; samples at 10^-5 M; area value of VIP--NH2 taken as 100 %
From the text: A. Determination on Relaxation of Muscle of Bronchus Removed from Guinea Pig
The juglar vein of a male guinea pig weighing 300 g or more is cut, causing the guinea pig to be bled to death. The guinea pig undergoes thoracotomy. Immediately after the thoracotomy, 3 cm of the trachea is taken out. The trachea is immediately put in a Krebs solution. It is then cut into seven equal rings, and the cartilages are connected to one another with a cotton yarn to form a chain. Subsequently, the smooth muscle parts and cartilages opposite them are cut, so that the smooth muscle parts can be connected to one another. The preparation thus prepared is placed in an isothermic glass cell having an internal capacity of about 7 ml and suspended from above. The lower part of the preparation is fixed, while the upper part is connected to an isometric transducer, to which 0.5 g of a load has been applied, in order to determine the relaxation reaction. Sufficient amounts of 95 % oxygen and 5 % carbon dioxide gas are blown into the preparation. Further, a Krebs solution of 37° C. containing 6.5×10^-6 M histamine is dropped on the preparation from above at a flow rate of 3.3 ml/min. The relaxation reaction takes place to an extent proportional to the amount of a sample added to the dropped solution. By utilizing this relationship, the relaxation activity against bronchial smooth muscle with respect to the substance of the present invention is compared with that of VIP--NH2. VIP--NH2 is used at a concentration of 10^-5 M and dropped in amounts of 40 μl and 80 μl. The substance of the present invention is also used at a concentration of 10^- 5 M and dropped in amounts of 10 μl and 20 μl. The value of the area (height×time) in relaxation of each case is determined. The specific activities are obtained by taking the area value of VIP--NH2 as 100 % and determining the relative ratio of the area value of each use. Thus, the relaxation reactions are compared by the four-point assay method, with respect to the above-mentioned determination method, reference may be made to the following articles (e) and (f): […]

SMILES | A: specific activity (%) obtained by method A (relaxation of bronchial smooth muscle, area value relative to VIP-NH2) [%]
CC[C@H](C)[C@H](NC(=O)[C@H](CO)NC(=O)[C@H](CC(N)=O)NC(=O)[C@H](CC(C)C)NC(=O)[C@H](Cc1ccc(O)cc1)NC(=O)[C@H](CCCCN)NC(=O)[C@H](CCCCN)NC(=O)[C@@H](NC(=O)[C@H](C)NC(=O)[C@H](CCSC)NC(=O)[C@H](CCC(N)=O)NC(=O)[C@H](CCCCN)NC(=O)[C@H](CCCNC(=N)N)NC(=O)[C@H](CC(C)C)NC(=O)[C@H](CCCNC(=N)N)NC(=O)[C@@H](NC(=O)[C@H](Cc1ccc(O)cc1)NC(=O)[C@H](CC(N)=O)NC(=O)[C@H](CC(=O)O)NC(=O)[C@@H](NC(=O)[C@H](Cc1ccccc1)NC(=O)[C@@H](NC(=O)[C@H](C)NC(=O)[C@H](CC(=O)O)NC(=O)[C@H](CO)NC(=O)[C@@H](N)Cc1c[nH]cn1)C(C)C)[C@@H](C)O)[C@@H](C)O)C(C)C)C(=O)N[C@@H](CC(C)C)C(=O)N[C@@H](CC(N)=O)C(=O)O [VIP - OH] | 60
CC[C@H](C)[C@H](NC(=O)[C@H](CO)NC(=O)[C@H](CC(N)=O)NC(=O)[C@H](CC(C)C)NC(=O)[C@H](Cc1ccc(O)cc1)NC(=O)[C@H](CCCCN)NC(=O)[C@H](CCCCN)NC(=O)[C@@H](NC(=O)[C@H](C)NC(=O)[C@H](CCSC)NC(=O)[C@H](CCC(N)=O)NC(=O)[C@H](CCCCN)NC(=O)[C@H](CCCNC(=N)N)NC(=O)[C@H](CC(C)C)NC(=O)[C@H](CCCNC(=N)N)NC(=O)[C@@H](NC(=O)[C@H](Cc1ccc(O)cc1)NC(=O)[C@H](CC(N)=O)NC(=O)[C@H](CC(=O)O)NC(=O)[C@@H](NC(=O)[C@H](Cc1ccccc1)NC(=O)[C@@H](NC(=O)[C@H](C)NC(=O)[C@H](CC(=O)O)NC(=O)[C@H](CO)NC(=O)[C@@H](N)Cc1c[nH]cn1)C(C)C)[C@@H](C)O)[C@@H](C)O)C(C)C)C(=O)N[C@@H](CC(C)C)C(=O)N[C@@H](CC(N)=O)C(N)=O [VIP - NH2] | 100
CC[C@H](C)[C@H](NC(=O)[C@H](CO)NC(=O)[C@H](CC(N)=O)NC(=O)[C@H](CC(C)C)NC(=O)[C@H](Cc1ccc(O)cc1)NC(=O)[C@H](CCCCN)NC(=O)[C@H](CCCCN)NC(=O)[C@@H](NC(=O)[C@H](C)NC(=O)[C@H](CCSC)NC(=O)[C@H](CCC(N)=O)NC(=O)[C@H](CCCCN)NC(=O)[C@H](CCCNC(=N)N)NC(=O)[C@H](CC(C)C)NC(=O)[C@H](CCCNC(=N)N)NC(=O)[C@@H](NC(=O)[C@H](Cc1ccc(O)cc1)NC(=O)[C@H](CC(N)=O)NC(=O)[C@H](CC(=O)O)NC(=O)[C@@H](NC(=O)[C@H](Cc1ccccc1)NC(=O)[C@@H](NC(=O)[C@H](C)NC(=O)[C@H](CC(=O)O)NC(=O)[C@H](CO)NC(=O)[C@@H](N)Cc1c[nH]cn1)C(C)C)[C@@H](C)O)[C@@H](C)O)C(C)C)C(=O)N[C@@H](CC(C)C)C(=O)N[C@@H](CC(N)=O)C(=O)NCC(=O)N[C@@H](CCCCN)C(=O)O [X=Met Y=Lys--OH] | 300
